In PubChem BioAssay AID1963430 (Molecular Pharmacology Branch, DTP, NCI, 2024):

Test system: 521955-158-R2-J5-PDC complex spheroid growth, % test/control
Test: Anticancer human tumor 521955-158-R2-J5-PDC patient-derived pancreatic carcinoma cell line growth inhibition [Asc]
Details: for IC50: curve of first compound; for viability, T/C: stronger effect = lower value
Procedure, shortened: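 Stromal components (HUVEC and hMSC) are co-assembled with the cancer cells into multicellular spheroids. Drugs are then added singly or paired, at concentrations falling by half-log increments from a clinically achievable maximum, capped at 10 microM without known Cmax.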

[1] = second compound 0.01 µM, first compound 0.0316 µM
[2] = second compound 0.01 µM, first compound 0.1 µM
[3] = second compound 0.01 µM, first compound 0.316 µM
[4] = second compound 0.01 µM, first compound 1 µM
[5] = second compound 0.0316 µM, first compound 0.0316 µM
[6] = second compound 0.0316 µM, first compound 0.1 µM
[7] = second compound 0.0316 µM, first compound 0.316 µM
[8] = second compound 0.0316 µM, first compound 1 µM
[9] = second compound 0.1 µM, first compound 0.0316 µM
[10] = second compound 0.1 µM, first compound 0.1 µM
[11] = second compound 0.1 µM, first compound 0.316 µM
[12] = second compound 0.1 µM, first compound 1 µM
[13] = second compound 0.316 µM, first compound 0.0316 µM
[14] = second compound 0.316 µM, first compound 0.1 µM
[15] = second compound 0.316 µM, first compound 0.316 µM
[16] = second compound 0.316 µM, first compound 1 µM
[17] = second compound 1 µM, first compound 0.0316 µM
[18] = second compound 1 µM, first compound 0.1 µM
[19] = second compound 1 µM, first compound 0.316 µM
[20] = second compound 1 µM, first compound 1 µM
[21] = second compound 0.01 µM, first compound 0.00316 µM
[22] = second compound 0.01 µM, first compound 0.01 µM
[23] = second compound 0.0316 µM, first compound 0.00316 µM
[24] = second compound 0.0316 µM, first compound 0.01 µM
[25] = second compound 0.1 µM, first compound 0.00316 µM
[26] = second compound 0.1 µM, first compound 0.01 µM
[27] = second compound 0.316 µM, first compound 0.00316 µM
[28] = second compound 0.316 µM, first compound 0.01 µM
[29] = second compound 1 µM, first compound 0.00316 µM
[30] = second compound 1 µM, first compound 0.01 µM
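Further: spheroids exposed to agents for 7 days before readout.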
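Wherever viability, T/C is given: 100% = DMSO vehicle control viability.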

| Compound | IC50 (second compound 0.01 µM) | IC50 (second compound 0.0316 µM) | IC50 (second compound 0.1 µM) | IC50 (second compound 0.316 µM) | IC50 (second compound 1 µM) | viability, T/C [1] | viability, T/C [2] | viability, T/C [3] | viability, T/C [4] | viability, T/C [5] | viability, T/C [6] | viability, T/C [7] | viability, T/C [8] | viability, T/C [9] | viability, T/C [10] | viability, T/C [11] | viability, T/C [13] | viability, T/C [14] | viability, T/C [17] | viability, T/C [18] | also measured |
| --- | --- | --- | --- | --- | --- | --- | --- | --- | --- | --- | --- | --- | --- | --- | --- | --- | --- | --- | --- | --- | --- |
| C=CC(=O)N1CCN(c2nc(=O)n(-c3c(C)ccnc3C(C)C)c3nc(-c4c(O)cccc4F)c(F)cc23)C(C)C1 (stereo not given) + CNC(C)C(=O)NC1CN(S(=O)(=O)c2cccc(S(=O)(=O)N3CCC4CCC(C(=O)NC(c5ccccc5)c5ccccc5)N4C(=O)C(NC(=O)C(C)NC)C3)c2)CCC2CCC(C(=O)NC(c3ccccc3)c3ccccc3)N2C1=O | > 10000 nM | > 10000 nM | > 10000 nM | > 10000 nM | > 10000 nM | 91.1% | 105% | 111% | 118% | 108% | 93.1% | 103% | 94.8% | 91.8% | 111% | 105% | 104% | 100% | 115% | 98.3% | viability, T/C (second compound 0.01 µM, first compound 3.16 µM): 119%; viability, T/C (second compound 0.01 µM, first compound 10 µM): 88.2%; viability, T/C (second compound 0.0316 µM, first compound 3.16 µM): 115%; viability, T/C (second compound 0.0316 µM, first compound 10 µM): 96.7%; viability, T/C [12]: 119%; viability, T/C (second compound 0.1 µM, first compound 3.16 µM): 97.4%; viability, T/C (second compound 0.1 µM, first compound 10 µM): 89.1%; viability, T/C [15]: 97.3%; viability, T/C [16]: 98.2%; viability, T/C (second compound 0.316 µM, first compound 3.16 µM): 106%; viability, T/C (second compound 0.316 µM, first compound 10 µM): 95.2%; viability, T/C [19]: 102%; viability, T/C [20]: 109%; viability, T/C (second compound 1 µM, first compound 3.16 µM): 113%; viability, T/C (second compound 1 µM, first compound 10 µM): 88.3% |
| COc1c(OCCCN2CCOCC2)ccc2c3n(c(=NC(=O)c4cnc(N)nc4)nc12)CCN3 + CNC(C)C(=O)NC1CN(S(=O)(=O)c2cccc(S(=O)(=O)N3CCC4CCC(C(=O)NC(c5ccccc5)c5ccccc5)N4C(=O)C(NC(=O)C(C)NC)C3)c2)CCC2CCC(C(=O)NC(c3ccccc3)c3ccccc3)N2C1=O | 8.04 nM | 21 nM | 9.32 nM | 14.9 nM | 21.9 nM | 38.4% | 25.5% | 17.9% | 11.8% | 35% | 30% | 18% | 11.5% | 36.1% | 27.9% | 17.1% | 35.6% | 34.8% | 42.5% | 28.6% | viability, T/C [21]: 63.6%; viability, T/C [22]: 42.8%; viability, T/C [23]: 73.1%; viability, T/C [24]: 71.1%; viability, T/C [25]: 71.3%; viability, T/C [26]: 43.6%; viability, T/C [12]: 11.6%; viability, T/C [27]: 91%; viability, T/C [28]: 52.8%; viability, T/C [15]: 16.5%; viability, T/C [16]: 13.1%; viability, T/C [29]: 83.3%; viability, T/C [30]: 64.5%; viability, T/C [19]: 17.6%; viability, T/C [20]: 12.9% |
| NC1CCC(NC2CC2c2ccccc2)CC1 (stereo not given) + CNC(C)C(=O)NC1CN(S(=O)(=O)c2cccc(S(=O)(=O)N3CCC4CCC(C(=O)NC(c5ccccc5)c5ccccc5)N4C(=O)C(NC(=O)C(C)NC)C3)c2)CCC2CCC(C(=O)NC(c3ccccc3)c3ccccc3)N2C1=O | > 100 nM | > 100 nM | > 100 nM | > 100 nM | > 100 nM | 71.6% | 69.1% | – | – | 72% | 64.8% | – | – | 85.8% | 58.8% | – | 68.7% | 72% | 56.6% | 66.5% | viability, T/C (second compound 0.01 µM, first compound 0.000316 µM): 79.9%; viability, T/C (second compound 0.01 µM, first compound 0.001 µM): 70.7%; viability, T/C [21]: 82.2%; viability, T/C [22]: 80.9%; viability, T/C (second compound 0.0316 µM, first compound 0.000316 µM): 88.5%; viability, T/C (second compound 0.0316 µM, first compound 0.001 µM): 81.4%; viability, T/C [23]: 61%; viability, T/C [24]: 79%; viability, T/C (second compound 0.1 µM, first compound 0.000316 µM): 66.5%; viability, T/C (second compound 0.1 µM, first compound 0.001 µM): 83.7%; viability, T/C [25]: 80.7%; viability, T/C [26]: 74.2%; viability, T/C (second compound 0.316 µM, first compound 0.000316 µM): 73.8%; viability, T/C (second compound 0.316 µM, first compound 0.001 µM): 93.5%; viability, T/C [27]: 83%; viability, T/C [28]: 49%; viability, T/C (second compound 1 µM, first compound 0.000316 µM): 82%; viability, T/C (second compound 1 µM, first compound 0.001 µM): 70.5%; viability, T/C [29]: 87.3%; viability, T/C [30]: 90% |
